Patent US10105357B2, “Indication of antibiotic drugs for preparation of cancer inhibition pharmaceutical composition” (LAUNX BIOMEDICAL CO., LTD., priority 2014, dated 2018)
Like-named read-outs stand apart in the source and are kept apart here.

Assays:
[1] = tested on: A375 (Amelanotic Melanoma); experiment: Cell viability analysis, skin cancer A375; type: cell-based, human; settings: Homo sapiens, A-375, 72 h
[2] = tested on: PC3 (p53−) (Prostate Adenocarcinoma); experiment: Cell viability analysis, prostate cancer PC3; type: cell-based, human; settings: Homo sapiens, 72 h
TOV-21G = experiment: Cell viability analysis, ovarian cancer TOV-21G; type: cell-based, human; settings: Homo sapiens, TOV21G, 72 h; TOV-21G; repeated experiment; read-out: The results of antibiotic drug inhibiting cancer cell lines (cell viability analysis), TOV-21G
U-2OS = experiment: Cell viability analysis, osteosarcoma U-2OS; type: cell-based, human; settings: Homo sapiens, 72 h; U2OS; repeated experiment; read-out: The results of antibiotic drug inhibiting cancer cell lines (cell viability analysis), U2OS
[3] = tested on: LoVo (Colorectal Adenocarcinoma); experiment: Cell viability analysis, colon cancer LoVo; type: cell-based, human; settings: Homo sapiens, LoVo, 72 h
[4] = tested on: MDA-MB-231 (Mammary Gland, Adenocarcinoma); experiment: Cell viability analysis, breast cancer MDA-MB-231; type: cell-based, human; settings: Homo sapiens, MDA-MB-231, 72 h; MDA-MB231; repeated experiment; read-out: The results of antibiotic drug inhibiting cancer cell lines (cell viability analysis), MDA-MB231
cancer cell lines = experiment: Cell viability analysis (WST-1) on cancer cell lines; type: cell-based, human; settings: drug 10 μM, 72 hours, WST-1; Table 3
[5] = tested on: TSGH-8301 (Urinary Bladder Carcinoma); experiment: Cell viability analysis, bladder cancer TSGH-8301; type: cell-based, human; settings: Homo sapiens, 72 h
[6] = tested on: A549 (Lung Adenocarcinoma); experiment: Cell viability analysis, lung cancer A549; type: cell-based, human; settings: Homo sapiens, A549, 72 h
T24 = experiment: Cell viability analysis, bladder cancer T24; type: cell-based, human; settings: Homo sapiens, T-24, 72 h; T24; repeated experiment; read-out: The results of antibiotic drug inhibiting cancer cell lines (cell viability analysis), T24
[7] = tested on: AGS (Gastric Adenocarcinoma); experiment: Cell viability analysis, gastric cancer AGS; type: cell-based, human; settings: Homo sapiens, 72 h
[8] = tested on: Hep3B (hepatocellular carcinoma); experiment: Cell viability analysis, hepatic cancer Hep3B; type: cell-based, human; settings: Homo sapiens, 72 h; Hep3B; repeated experiment; read-out: The results of antibiotic drug inhibiting cancer cell lines (cell viability analysis), Hep3B
[9] = tested on: SAS (Tongue squamous cell carcinoma); experiment: Cell viability analysis, tongue cancer SAS; type: cell-based, human; settings: Homo sapiens, 72 h; SAS; repeated experiment; read-out: The results of antibiotic drug inhibiting cancer cell lines (cell viability analysis), SAS
[10] = tested on: HCT116 (p53+) (Colorectal Carcinoma)
AsPC-1 = experiment: Cell viability analysis, pancreatic cancer AsPC-1; type: cell-based, human; settings: Homo sapiens, ASPC1, 72 h; AsPC-1; repeated experiment; read-out: The results of antibiotic drug inhibiting cancer cell lines (cell viability analysis), AsPC-1
[11] = tested on: HL-60 (Acute Promyelocytic Leukemia); experiment: Cell viability analysis, leukemia HL-60; type: cell-based, human; settings: Homo sapiens, HL-60, 72 h, drug 10 μM, 72 hours, WST-1, OD450 nm; read-out: cell viability (survival rate), HL-60
NIH: OVCAR-3 = experiment: Cell viability analysis, ovarian cancer NIH: OVCAR-3; type: cell-based, human; settings: Homo sapiens, 72 h; NIH-OVCAR-3; repeated experiment; read-out: The results of antibiotic drug inhibiting cancer cell lines (cell viability analysis), NIH-OVCAR-3
[12] = tested on: MCF7 (Mammary Gland, Adenocarcinoma); experiment: Cell viability analysis, breast cancer MCF7; type: cell-based, human; settings: Homo sapiens, MCF7, 72 h
[13] = tested on: HI650 (Lung Adenocarcinoma); experiment: Cell viability analysis, lung cancer HI650; type: cell-based, human; settings: Homo sapiens, NCI-H1650, 72 h
[14] = tested on: MKN-45 (Gastric Adenocarcinoma); experiment: Cell viability analysis, gastric cancer MKN-45; type: cell-based, human; settings: Homo sapiens, MKN-45, 72 h
[15] = tested on: HeLa (Cervix Adenocarcinoma); experiment: Cell viability analysis, cervical cancer HeLa; type: cell-based, human; settings: Homo sapiens, HeLa, 72 h, HeLa
[16] = tested on: 786-O (Renal adenocarcinoma); experiment: Cell viability analysis, renal cancer 786-O; type: cell-based, human; settings: Homo sapiens, 786-0, 72 h; 786-O; repeated experiment; read-out: The results of antibiotic drug inhibiting cancer cell lines (cell viability analysis), 786-O
[17] = tested on: BCC (basal cell carcinoma); experiment: Cell viability analysis, skin cancer BCC; type: cell-based, human; settings: Homo sapiens, 72 h; BCC; repeated experiment; read-out: The results of antibiotic drug inhibiting cancer cell lines (cell viability analysis), BCC
BxPC-3 = experiment: Cell viability analysis, pancreatic cancer BxPC-3; type: cell-based, human; settings: Homo sapiens, 72 h; BxPC-3; repeated experiment; read-out: The results of antibiotic drug inhibiting cancer cell lines (cell viability analysis), BxPC-3

Cc1ccc2c(Cl)cc(Cl)c(O)c2n1 [Chlorquinaldol]
viability at 10 µM ([1]; A375, repeated experiment, read-out: The results of antibiotic drug inhibiting cancer cell lines (cell viability analysis), A375): 35.5% | viability at 10 µM ([1]; drug 10 μM, 72 hours, WST-1, OD450 nm, read-out: cell viability (survival rate), A375): 43% | viability at 10 µM ([2]; PC-3, repeated experiment, read-out: The results of antibiotic drug inhibiting cancer cell lines (cell viability analysis), PC-3): 66.4% | viability at 10 µM ([2]; drug 10 μM, 72 hours, WST-1, OD450 nm, read-out: cell viability (survival rate), PC3): 68.4% | viability at 10 µM (TOV-21G): 40.1% | viability at 10 µM (U-2OS): 32.4% | viability at 10 µM ([3]; read-out: The results of antibiotic drug inhibiting cancer cell lines (cell viability analysis), LoVo, repeated experiment): 45.8% | viability at 10 µM ([3]; read-out: cell viability (survival rate), LoVo, drug 10 μM, 72 hours, WST-1, OD450 nm): 62.8% | viability at 10 µM [4]: 65% | inhibition effect on different cancer cell lines (cancer cell lines): significant inhibition effect | viability at 10 µM ([5]; TSGH-8301, repeated experiment, read-out: The results of antibiotic drug inhibiting cancer cell lines (cell viability analysis), TSGH-8301): 87% | viability at 10 µM ([5]; drug 10 μM, 72 hours, WST-1, OD450 nm, read-out: cell viability (survival rate), TSGH): 70.5% | viability at 10 µM ([6]; A549, repeated experiment, read-out: The results of antibiotic drug inhibiting cancer cell lines (cell viability analysis), A549): 37.8% | viability at 10 µM ([6]; drug 10 μM, 72 hours, WST-1, OD450 nm, read-out: cell viability (survival rate), A549): 54.5% | viability at 10 µM (T24): 50.6% | viability at 10 µM ([7]; AGS, repeated experiment, read-out: The results of antibiotic drug inhibiting cancer cell lines (cell viability analysis), AGS): 53.9% | viability at 10 µM ([7]; drug 10 μM, 72 hours, WST-1, OD450 nm, read-out: cell viability (survival rate), AGS): 35.7% | viability at 10 µM [8]: 105% | viability at 10 µM [9]: 20.6% | viability [10]: 38.5% | viability at 10 µM (AsPC-1): 62.8% | viability at 10 µM [11]: 64.8% | viability at 10 µM (NIH: OVCAR-3): 78.1% | viability at 10 µM ([12]; MCF-7, repeated experiment, read-out: The results of antibiotic drug inhibiting cancer cell lines (cell viability analysis), MCF-7): 30.2% | viability at 10 µM ([12]; drug 10 μM, 72 hours, WST-1, OD450 nm, read-out: cell viability (survival rate), MCF7): 47.8% | viability at 10 µM ([13]; H1650, repeated experiment, read-out: The results of antibiotic drug inhibiting cancer cell lines (cell viability analysis), H1650): 75.2% | viability at 10 µM ([13]; drug 10 μM, 72 hours, WST-1, OD450 nm, read-out: cell viability (survival rate), H1650): 59.6% | viability at 10 µM ([14]; MKN-45, repeated experiment, read-out: The results of antibiotic drug inhibiting cancer cell lines (cell viability analysis), MKN-45): 92.4% | viability at 10 µM ([14]; drug 10 μM, 72 hours, WST-1, OD450 nm, read-out: cell viability (survival rate), MKN-45): 75.4% | viability at 10 µM ([15]; repeated experiment, read-out: The results of antibiotic drug inhibiting cancer cell lines (cell viability analysis), HeLa): 64.9% | viability at 10 µM ([15]; drug 10 μM, 72 hours, WST-1, OD450 nm, read-out: cell viability (survival rate), HeLa): 42.6% | viability at 10 µM [16]: 41.8% | viability at 10 µM [17]: 43% | viability at 10 µM (BxPC-3): 53.9%
